Results as given in ChEMBL document CHEMBL1132216, “Studies on the monoamine oxidase-B-catalyzed biotransformation of 4-azaaryl-1-methyl-1,2,3,6-tetrahydropyridine derivatives” (J Med Chem, 1999).

Assay: Ratio of Kcat versus Km was determined

Compound	Ratio
CN1CC=C(c2cccn2C)CC1	1800
CN1CC=C(c2ccc[nH]2)CC1	46
